Earlier results in patent publication US5935597A, “Drug delivery devices and methods for treatment of viral and microbial infections and wasting syndromes” (Cryopreservation Technologies CC, priority 1995, dated 1999).

What was measured:
human cancer = conditions: cited from earlier work
[1] = tested on: Human Herpes Virus 6 (HHV-6); conditions: certain cultured cell lines; cited from earlier work
HIV [2] = conditions: certain cultured cell lines; cited from earlier work
human cancer xenografts = conditions: intraperitoneal injection, nude mice; cited from earlier work
HIV [3] = conditions: cited from earlier work
[4] = appetite enhancers, wasting syndromes; cited from earlier work
mouse sarcoma allograft = conditions: in vivo; cited from earlier work
HIV-2 = conditions: cells infected with HIV-2 isolates, in vitro; cited from earlier work
HIV-1 = conditions: cells infected with HIV-1 isolates, in vitro; cited from earlier work

Molecule: C[S+](C)[O-] [DMSO, dimethylsulfoxide]
- objective response (human cancer; human cancer patients): no objective response
- in vitro replication of HHV-6 [1]: inhibit in vitro replication of HIV and Human Herpes Virus 6 (HHV-6)
- in vitro replication of HIV (HIV [2]): inhibit in vitro replication of HIV

Molecule: CNC=O [NMF, N-methylformamide]
- anticancer activity (human cancer; oral, human patients with cancer of the head and neck (Planting et al.)): only minimal activity
- hepatotoxicity and response (human cancer; oral, human patients with cancer of the head and neck (Vogel et al.)): hepatotoxicity with no beneficial response
- growth of human cancer xenografts (human cancer xenografts): slow the growth of certain human cancer xenografts

Molecule: Cc1cn([C@H]2C=C[C@@H](CO)O2)c(=O)[nH]c1=O [d4T, stavudine]
- anti-HIV activity (HIV [3]): active against HIV

Molecule: CCCCCc1cc(O)c2c(c1)OC(C)(C)[C@@H]1CCC(C)=C[C@@H]21 [dronabinol]
- weight gain [4]: tended to gain only fat and not overall body mass

Molecule: NC=O [formamide]
- toxicity (mouse sarcoma allograft): toxic side-effects

Molecule: CC(=O)O[C@]1(C(C)=O)CC[C@H]2[C@@H]3C=C(C)C4=CC(=O)CC[C@]4(C)[C@H]3CC[C@@]21C [megestrol acetate]
- weight gain [4]: tended to gain only fat and not overall body mass

B1: MIP-1α: chemokine secreted by CD8+ T cells (protein, UniProt P10147 24-92, looked up)
C-C motif chemokine 3: SLAADTPTACCFSYTSRQIPQNFIADYFETSSQCSKPGVIFLTKRSRQVCADPSEEWVQKYVSDLELSA
- HIV-1 p24 antigen production (HIV-2): suppress HIV-1 p24 antigen production
- HIV-1 p24 antigen production (HIV-1): suppress HIV-1 p24 antigen production

B2: RANTES: chemokine secreted by CD8+ T cells (protein, UniProt P13501 24-91, looked up)
C-C motif chemokine 5: SPYSSDTTPCCFAYIARPLPRAHIKEYFYTSGKCSNPAVVFVTRKNRQVCANPEKKWVREYINSLEMS
- HIV-1 p24 antigen production (HIV-2): suppress HIV-1 p24 antigen production
- HIV-1 p24 antigen production (HIV-1): suppress HIV-1 p24 antigen production

B3: MIP-1β: chemokine secreted by CD8+ T cells (protein, UniProt P13236 24-92, looked up)
C-C motif chemokine 4: APMGSDPPTACCFSYTARKLPRNFVVDYYETSSLCSQPAVVFQTKRSKQVCADPSESWVQEYVYDLELN
modifications: ends and bridges not checked
notes: chemokine secreted by CD8+ T cells
- HIV-1 p24 antigen production (HIV-2): suppress HIV-1 p24 antigen production
- HIV-1 p24 antigen production (HIV-1): suppress HIV-1 p24 antigen production
